Measurements: patent publication US11331368B2, “Angiotensin receptor agonists and uses thereof” (Monash University, priority 2017, dated 2022)

Columns and labels:
[1] = tested on: male FVB/N mice on high salt diet, heart; assay: High salt (5%) diet intervention model, heart; type: in vivo, mouse
In short: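 Male FVB/N mice fed 5% salt diet for 8 weeks (controls 0.35% NaCl); from week 4, AT2R agonist at 75 pmol/kg/min or saline given subcutaneously by osmotic minipump for 4 weeks on continued high salt. Heart collagen by picrosirius red, % interstitial staining averaged over eight fields; immunofluorescence for fibrosis/inflammation markers.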

[2] = tested on: human cardiac fibroblasts; assay: TGF-β1-induced collagen production in human cardiac fibroblasts (Western blot); type: cell-based; details: co-treated with TGF-β1 for 3 days, increasing concentrations up to 1 μM
Protocol: D) Human cardiac fibroblasts (HCFs) were treated with TGFβ1 to induce a pro-fibrotic phenotype state in cell culture, exemplified by increased collagen-1 production, measured by Western blot. HCFs were treated with TGFβ1 alone, or in the presence of an AT2R agonist for 3 days, and the ability of AT2R agonists to inhibit TGFβ1-induced collagen-1 production was measured.
Commercially available human cardiac fibroblasts (HCF, Catalog #6300, Sciencell, Calif., USA) were grown in T75 flask maintained in an incubator at 37° C., 5% CO2. Complete media composition: M199 media (#11150-059, life technologies)+10% FBS (#10437-028, life technologies)+1% Fibroblast Growth Supplement-2 (#2382, ScienCell)+1% penicillin/streptomycin 10,000 U/ml antibiotics (#15140-122, Life Technologies). Fresh complete media was replenished every alternate day until culture reached 70% confluence in which media is replenished daily until it reached approximately 90% confluence in order to passage/subculture. To subculture, media was discarded and culture was rinsed with warm PBS. After which, culture was detached using warm 0.05% Trypsin+EDTA with gentle swirling of flask to make sure cells were not adherent to surface of flask. Trypsin was then neutralized with complete media and suspension was then transferred into a new falcon tube and centrifuged at 1000 rpm for 5 minutes. Supernatant was discarded and pellet of cells were resuspended with 5 ml of complete media, followed by cell counting. For subculturing/passaging, 1 million HCFs are placed into a T75 flask. For Picrosirius Red (PSR) staining or immunofluorescence experiments, 100 k cells were loaded per well in a 24 well plate lined with round coverslips. […]
Once treatment is complete, cells were washed with warm PBS and detached using Accutase (A6964, Sigma), with 5 minutes incubation at 37° C. […] The supernatant (˜20 ul) was transferred to a new tube and protein concentrations were measured using Biorad Lowry protein assay. Protein quantification of respective markers were performed via standard western blot analysis. […]

In the case of “Arg-Val-Tyr-Ile-His-β-Pro-Phe [βPro-Ang III]”, the “myofibroblast differentiation in heart (α-SMA)” value ([1]; 75 pmol/kg/min s.c., weeks 5-8) was “fully reversed the high salt-induced myofibroblast differentiation”, the “cardiac fibrosis (picrosirius red)” value ([1]; weeks 5-8 of high salt diet, peptides 75 pmol/kg/min s.c. mini-pump, Cand 2 mg/kg/day, captopril 3 mg/kg/day in drinking water) was “reversed established cardiac fibrosis” and the TGF-β1-induced collagen production [2] was “dose-dependent decreases”.
